According to US20250268844A1, “ANTICANCER AGENTS BASED ON CYCLOPENTENONES” (UNIVERSITY OF CRETE, priority 2022, published 2025):

What was measured:
Type in all cases: cell-based, human
HepG2 liver cells = experiment: MTT conversion assay, HepG2; conditions: Homo sapiens, 48 hrs treatment
Protocol: (§1) In particular, Enone-1 and Enone-2 were tested for cytotoxic activity in 17 cell lines representing a broad spectrum of human tumors. They include human colorectal carcinoma (Caco2, RKO, HCT15, HT29), liver (HepG2), lung (A549), ovarian carcinoma (A2780, 2780CP, AGE60, SKOV3), anaplastic large cell lymphoma (Mac1 and Mac2a), breast carcinoma (MDA-MB-231), cervical (HeLa), bladder cancer (VM-CUB-1), melanoma (BRO), and multiple myeloma (MR20).
(§2) Each assay was performed in triplicate and repeated in 2-3 independent experiments. Specifically, to measure cell survival, 20 μl of 10 mg/ml MTT (3-([…])-2,5-diphenyl tetrazolium bromide; Sigma) was added to each well and the plates were incubated at 37° C. in 5% CO2 for 3 hours. The supernatant was removed and the formed crystals were dissolved in 200 μl dimethyl sulphoxide. The plates were then analysed at 450 nm on a plate reader. Growth inhibition (reduction in survival) was calculated by expressing the differences in optical densities between treatment wells and control wells as a percentage of the control.

[1] = tested on: A2780 ovarian carcinoma cells; experiment: Cell cycle analysis by propidium iodide flow cytometry; conditions: 2.5 μM or 5 μM for 24 hours
Protocol: The effect of Enone-2 on cell cycle progression was tested to determine if it causes cell cycle arrest, in addition to inducing cell death. To this end, A2780 ovarian carcinoma cells were treated with 2.5 μM or 5 μM Enone-2 for 24 hours, cells were detached, fixed in 1% Neutral Buffered Formalin and stained with 5 μg/ml propidium iodide. Cell suspensions were next analyzed for fluorescence intensities (DNA content) by quantitative flow cytometry.

[2] = tested on: MDA-MB-231 breast carcinoma cells; experiment: MTT conversion assay, MDA-MB-231; conditions: Homo sapiens, 48 hrs treatment
Protocol: as §1, §2

For `C[C@@]1(O)C=CC(=O)[C@H]1c1ccc(F)c2ccccc12` (stereo in doubt) [Enone-2, 5-(4-fluoronaphthalen-1-yl)-4-hydroxy-4-methylcyclopent-2-en-1-one], the IC50 (HepG2 liver cells) was 3000 nM, the “cell cycle progression (DNA content)” value [1] was “accumulation of cells in the G2/M phase of the cell cycle in a concentration dependent manner” and the IC50 [2] was 2500 nM.
